This is an account of results in patent US20230017532A1 (Hoffmann-La Roche Inc., priority 2018, published 2023).

Counter-ions that a name gives are not always drawn.

One assay deals with Acinetobacter baumannii ATCC17978. The experiment in a line: Antimicrobial susceptibility testing: 90% growth inhibitory concentration (IC90) determination, Iso-Sensitest broth, OD 600 nm. The note with it: 90% growth inhibitory concentration, Acinetobacter baumannii ATCC17978, Iso-Sensitest broth, OD 600 nm over 16 h; read-out: ATCC 17978 IC90. The assay is classed as cell-based. How it is done: Antimicrobial Susceptibility Testing:
90% Growth Inhibitory Concentration (IC90) Determination
The in vitro antimicrobial activity of the compounds was determined according to the following procedure:
The assay used a 10-points Iso-Sensitest broth medium to measure quantitatively the in vitro activity of the compounds against Acinetobacter baumannii ATCC17978 and Acinetobacter baumannii ATCC17961.
Stock compounds in DMSO were serially twofold diluted (e.g. range from 50 to 0.097 μM final concentration) in 384 wells microtiter plates and inoculated with 49 μl the bacterial suspension in Iso-Sensitest medium to have a final cell concentration of ˜5×10^(5) CFU/ml in a final volume/well of 50 ul/well. Microtiter plates were incubated at 35±2° C.
Bacterial cell growth was determined with the measurement of optical density at λ=600 nm each 20 minutes over a time course of 16 h. Growth inhibition was calculated during the logarithmic growth of the bacterial cells with determination of the concentration inhibiting 50% (IC50) and 90% (IC90) of the growth.
Table 1 provides the 90% growth inhibitory concentrations (IC90) in micromoles per liter of the compounds of present invention obtained against the strain Acinetobacter baumannii ATCC17978 and Acinetobacter baumannii ATCC17961.
Consider `COc1ccc(-c2cnc3c(Nc4ccc(C(=O)NCCOCCN5CCNCC5)c(C)c4)nccn23)cc1` [Example 44, 4-[[3-(4-methoxyphenyl)imidazo[1,2-a]pyrazin-8-yl]amino]-2-methyl-N-[2-(2-piperazin-1-ylethoxy)ethyl]benzamide;dihydrochloride], for which the IC90 amounted to 460 nM. On the same count and under the same terms, next, `CCc1cc(Nc2nccn3c(-c4ccc(OCC#N)c(F)c4F)cnc23)ccc1C(=O)NCCOCCN` [Example 53, N-(2-(2-aminoethoxy)ethyl)-4-((3-(4-(cyanomethoxy)-2,3-difluorophenyl)imidazo[1,2-a]pyrazin-8-yl)amino)-2-ethylbenzamide]: 130 nM.

The assay is the same for the next values; noted with them: Acinetobacter baumannii, ATCC17978, 16 h, 90% growth inhibitory concentration, Acinetobacter baumannii ATCC17978, Iso-Sensitest broth, OD 600 nm over 16 h; read-out: ATCC 17978 IC90.
For `Cc1cc(Nc2nccn3c(-c4ccc(OCC#CCO)cc4)cnc23)ccc1C(=O)NCCOCCN` [Example 29, N-[2-(2-aminoethoxy)ethyl]-4-[[3-[4-(4-hydroxybut-2-ynoxy)phenyl]imidazo[1,2-a]pyrazin-8-yl]amino]-2-methyl-benzamide formate], the IC90 turned out to be 120 nM. `COc1ccc(-c2cnc3c(Nc4ccc(C(=O)NCCOCCN5CCC(O)CC5)c(C)c4)nccn23)cc1` [Example 38, N-(2-(2-(4-hydroxypiperidin-1-yl)ethoxy)ethyl)-4-((3-(4-methoxyphenyl)imidazo[1,2-a]pyrazin-8-yl)amino)-2-methylbenzamide]: the IC90 is 150 nM.

Regarding `CNCCOCCNC(=O)c1ccc(Nc2nccn3c(-c4ccc(OC)cc4)cnc23)cc1C` [Example 39, 4-((3-(4-methoxyphenyl)imidazo[1,2-a]pyrazin-8-yl)amino)-2-methyl-N-(2-(2-(methylamino)ethoxy)ethyl)benzamide], the IC90 came out at 260 nM. Same read-out and setting: next, `COc1ccc(-c2cnc3c(Nc4ccc(C(=O)NCCOCCNCCO)c(C)c4)nccn23)cc1` [Example 40, N-(2-(2-((2-hydroxyethyl)amino)ethoxy)ethyl)-4-((3-(4-methoxyphenyl)imidazo[1,2-a]pyrazin-8-yl)amino)-2-methylbenzamide]: 210 nM.

As to `COc1ccc(-c2cnc3c(Nc4ccc(C(=O)NCCOCCNCC(F)F)c(C)c4)nccn23)cc1` [Example 41, N-(2-(2-((2,2-difluoroethyl)amino)ethoxy)ethyl)-4-((3-(4-methoxyphenyl)imidazo[1,2-a]pyrazin-8-yl)amino)-2-methylbenzamide], the IC90 worked out at 450 nM. As for `COc1ccc(-c2cnc3c(Nc4ccc(C(=O)NCCOCCN5CC6(COC6)C5)c(C)c4)nccn23)cc1` [Example 42, N-(2-(2-(2-oxa-6-azaspiro[3.3]heptan-6-yl)ethoxy)ethyl)-4-((3-(4-methoxyphenyl)imidazo[1,2-a]pyrazin-8-yl)amino)-2-methylbenzamide], the IC90 amounted to 250 nM. The same measure, in the same setting: for `COc1ccc(-c2cnc3c(Nc4ccc(C(=O)NCCOCCN5CCC(F)CC5)c(C)c4)nccn23)cc1` [Example 43, N-(2-(2-(4-fluoropiperidin-1-yl)ethoxy)ethyl)-4-((3-(4-methoxyphenyl)imidazo[1,2-a]pyrazin-8-yl)amino)-2-methylbenzamide] the value was 290 nM; for `CNCCOCCNC(=O)c1ccc(Nc2nccn3c(-c4ccc(OC(F)F)cc4)cnc23)cc1C` [Example 45, 4-((3-(4-(difluoromethoxy)phenyl)imidazo[1,2-a]pyrazin-8-yl)amino)-2-methyl-N-(2-(2-(methylamino)ethoxy)ethyl)benzamide], 290 nM; for `Cc1cc(Nc2nccn3c(-c4ccc(OC(F)F)cc4)cnc23)ccc1C(=O)NCCS(=O)(=O)CCN` [Example 46, N-(2-((2-Aminoethyl)sulfonyl)ethyl)-4-((3-(4-(difluoromethoxy)phenyl)imidazo[1,2-a]pyrazin-8-yl)amino)-2-methylbenzamide], 530 nM. Regarding `Cc1cc(Nc2nccn3c(-c4ccc(OC(F)F)cc4)cnc23)ccc1C(=O)NCC[S+]([O-])CCN` (stereo not drawn) [Example 47, N-(2-((2-Aminoethyl)sulfinyl)ethyl)-4-((3-(4-(difluoromethoxy)phenyl)imidazo[1,2-a]pyrazin-8-yl)amino)-2-methylbenzamide], the IC90 came out at 920 nM. On the same count and under the same terms, next, `CCc1cc(Nc2nccn3c(-c4ccc(OC)c(F)c4F)cnc23)ccc1C(=O)NCCNCC(=O)O` [Example 48, (2-(4-((3-(2,3-difluoro-4-methoxyphenyl)imidazo[1,2-a]pyrazin-8-yl)amino)-2-ethylbenzamido)ethyl)glycine compound with 2,2,2-trifluoroacetic acid]: 920 nM; `CCc1cc(Nc2nccn3c(-c4ccc(OC)c(F)c4F)cnc23)ccc1C(=O)NCCCNCC(=O)O` [Example 49, (3-(4-((3-(2,3-difluoro-4-methoxyphenyl)imidazo[1,2-a]pyrazin-8-yl)amino)-2-ethylbenzamido)propyl)glycine compound trifluoroacetate]: 380 nM; `CCc1cc(Nc2nccn3c(-c4ccc(OC)c(F)c4F)cnc23)ccc1C(=O)NCCCCCNCC(=O)O` [Example 50, (5-(4-((3-(2,3-difluoro-4-methoxyphenyl)imidazo[1,2-a]pyrazin-8-yl)amino)-2-ethylbenzamido)pentyl)glycine hydrochloride]: 190 nM. On to `CCc1cc(Nc2nccn3c(-c4ccc(OC(F)F)c(F)c4F)cnc23)ccc1C(=O)NCCOCCN(C)CC(=O)O` [Example 51, N-(2-(2-(4-((3-(4-(Difluoromethoxy)-2,3-difluorophenyl)imidazo[1,2-a]pyrazin-8-yl)amino)-2-ethylbenzamido)ethoxy)ethyl)-N-methylglycine trifluoroacetate], for which the IC90 was determined as 300 nM. Take `CCc1cc(Nc2nccn3c(-c4ccc(OC)c(F)c4F)cnc23)ccc1C(=O)NCCOCCN(C)CC(=O)O` [Example 52, N-(2-(2-(4-((3-(2,3-difluoro-4-methoxyphenyl)imidazo[1,2-a]pyrazin-8-yl)amino)-2-ethylbenzamido)ethoxy)ethyl)-N-methylglycine hydrochloride]: the IC90 was 320 nM.

Still in this assay, the particulars now being: Acinetobacter baumannii, ATCC17978, 16 h, read-out: ATCC 17978 IC90.
`COc1ccc(-c2cnc3c(Nc4ccc(C(=O)NCCOCCN)c(C)c4)nccn23)cc1Cl` [Example 30, N-(2-(2-aminoethoxy)ethyl)-4-((3-(3-chloro-4-methoxyphenyl)imidazo[1,2-a]pyrazin-8-yl)amino)-2-methylbenzamide hydrochloride]: the IC90 amounted to 140 nM. As to `Cc1cc(Nc2nccn3c(-c4ccc(F)cc4)cnc23)ccc1C(=O)NCCOCCN` [Example 31, N-(2-(2-aminoethoxy)ethyl)-4-((3-(4-fluorophenyl)imidazo[1,2-a]pyrazin-8-yl)amino)-2-methylbenzamide hydrochloride], the IC90 is 950 nM. On the same count and under the same terms, next, `Cc1cc(Nc2nccn3c(-c4ccc(Cl)c(F)c4)cnc23)ccc1C(=O)NCCOCCN` [Example 32, N-(2-(2-aminoethoxy)ethyl)-4-((3-(4-chloro-3-fluorophenyl)imidazo[1,2-a]pyrazin-8-yl)amino)-2-methylbenzamide hydrochloride]: 300 nM; `Cc1cc(Nc2nccn3c(-c4ccc(F)c(F)c4)cnc23)ccc1C(=O)NCCOCCN` [Example 33, N-(2-(2-aminoethoxy)ethyl)-4-((3-(3,4-difluorophenyl)imidazo[1,2-a]pyrazin-8-yl)amino)-2-methylbenzamide hydrochloride]: 520 nM; `COc1ccc(-c2cnc3c(Nc4ccc(C(=O)NCCOCCN)c(C)c4)nccn23)c(F)c1` [Example 34, N-(2-(2-aminoethoxy)ethyl)-4-((3-(2-fluoro-4-methoxyphenyl)imidazo[1,2-a]pyrazin-8-yl)amino)-2-methylbenzamide hydrochloride]: 590 nM.

As to `Cc1cc(Nc2nccn3c(-c4ccc(F)cc4F)cnc23)ccc1C(=O)NCCOCCN` [Example 35, N-(2-(2-aminoethoxy)ethyl)-4-((3-(2,4-difluorophenyl)imidazo[1,2-a]pyrazin-8-yl)amino)-2-methylbenzamide hydrochloride], the IC90 worked out at 770 nM. Still for that read-out and setting: next, `COc1ccc(-c2cnc3c(Nc4ccc(C(=O)NCCOCCN)c(C)c4)nccn23)cc1F` [Example 36, N-(2-(2-aminoethoxy)ethyl)-4-((3-(3-fluoro-4-methoxyphenyl)imidazo[1,2-a]pyrazin-8-yl)amino)-2-methylbenzamide hydrochloride]: 160 nM; `Cc1cc(Nc2nccn3c(-c4ccc(F)c(F)c4F)cnc23)ccc1C(=O)NCCOCCN` [Example 37, N-(2-(2-aminoethoxy)ethyl)-2-methyl-4-((3-(2,3,4-trifluorophenyl)imidazo[1,2-a]pyrazin-8-yl)amino)benzamide hydrochloride]: 370 nM; `CCc1cc(Nc2nccn3c(-c4c(F)cc(OC)cc4F)cnc23)ccc1C(=O)NCCOCCN` [Example 54, N-[2-(2-aminoethoxy)ethyl]-4-[[3-(2,6-difluoro-4-methoxyphenyl)imidazo[1,2-a]pyrazin-8-yl]amino]-2-ethylbenzamide hydrochloride]: 320 nM. On the same count and under the same terms, for `CCc1cc(Nc2nccn3c(-c4ccc(OC)cc4N)cnc23)ccc1C(=O)NCCOCCN` [Example 57, 4-((3-(2-amino-4-methoxyphenyl)imidazo[1,2-a]pyrazin-8-yl)amino)-N-(2-(2-aminoethoxy)ethyl)-2-ethylbenzamide hydrochloride] the value was 650 nM.

Usually IC90 stands for the concentration needed for an effect of 90%.
